The source of these data is patent publication US8278267B2 (Amylin Pharmaceuticals, LLC, priority 2005, dated 2012).

The conditions of data set [1]: cited from earlier work.
For data set [2] the following is noted: e.g., provoking marked hyperlactemia followed by hyperglycemia; cited from earlier work.
A short description of data set [3]: Combination therapy amylin + sibutramine in DIO prone rats. The settings on record: two weeks; for change in body weight (vehicle-corrected): amylin 100 μg/kg/day and/or sibutramine 3 mg/kg/day by mini-pumps; for fat mass / lean (protein) mass: amylin 100 μg/kg/day and/or sibutramine 3 mg/kg/day. The data set is classed as in vivo, rat. On the procedure: In-bred DIO prone rats were obtained from Charles Rivers Labs. These rats were developed from a line of Crl:CD®(SD)BR rats that are prone to become obese on a diet relatively high in fat and energy (Levin, 1997). The rats were housed individually in shoebox cages at 22° C. in a 12/12-hour light dark cycle. […] At the end of the fattening period they typically have a mean body weight of 500 g. Rats were then divided into treatment groups and implanted with two subcutaneous mini-pumps (Durect Corp).

Data set [4] can be described thus: Effect of amylin on sucrose food preference, sugar withdrawal and restraint stress. The data set is classed as in vivo, rat. On the procedure:
The ability of amylin to modify food preference was examined in an animal model. Male, Sprague-Dawley® rats were submitted to a sugar withdrawal paradigm and observed for effects of stress on sugar intake. […] All rats were provided with ad libitum access to standard chow, water, and a 30% sucrose drink. Subsequently, the sucrose drink was removed and half of the rats were subjected, daily, to 3 h of mild restraint stress for 3 successive days. After 3 days, sucrose was provided and its daily average consumption was measured over 4 days. Chow intake was also measured over the 3 days of withdrawal and stress and over the following 4 days when sucrose was re-introduced. No restraint was applied during the 4 days of sucrose re-introduction. Results of this assay are shown in FIG. 1(A-D) where * is P<0.05 by ANOVA and Fisher LSD post-hoc analyses.

Data set [5] in a line: Effect of amylin on high fat food preference, 11-week osmotic pump treatment. The data set is classed as in vivo, rat. On the procedure: The ability of amylin to modify food preference was examined in an animal model. […] Animals had access to both low fat chow (6% fat kcal, 54% cornstarch kcal; #7012, Harlan Teklad, Madison, Wis.) and high fat chow (“palatable chow”) (58% fat kcal and 26% sucrose kcal; #D12311, Research Diets, New Brunswick, N.J.). Food intake and body weight were measured weekly. Just prior to treatment, and at the end of treatment, the amount of fat and lean tissue (expressed as g of tissue per 100 g of body weight) was measured via MRI (Echo MRI for rats, EchoMRI, Houston, Tex.).
Energy expenditure was assessed using an Oxymax animal monitoring system (Columbus Instruments, Columbus, Ohio) to measure oxygen consumption and carbon dioxide generation over time. From these measurements, heat (in kcal) was calculated and energy expenditure assessed.

Data set [6] in a line: Effect of amylin on body composition in DIO prone rats, 14 days of treatment then washout. The data set is classed as in vivo, rat. On the procedure: Diet-induced obesity (DIO) in the in the Sprague-Dawley rat is a valuable model for the study of obesity and regulation of energy homeostasis. […] All rats were housed individually in shoebox cages at 22° C. in a 12/12-hour light dark cycle. Amylin was administered by subcutaneous osmotic mini-pump (Durect Corp, Calif.). […] On day 14, mini-pumps were removed and replaced with pumps containing vehicle. For body composition, rats were scanned in a specialized rodent NMR machine (Echo Medical Systems) prior to drug treatment, and at the conclusion of the experiment, which enabled the calculation of percent changes in fat and lean composition (e.g., % body fat after treatment−% body fat at baseline=change in % body fat).

[7] abbreviates: at 11 weeks, compared to controls.
Setting [8] is: day 28, after amylin days 1-14 and vehicle days 15-28.
Where [9] appears, read: rat amylin 100 μg/kg/d s.c. mini-pump, days 2-14, vs vehicle controls.

Consider “^25Pro^26Val^28,29Pro-h-amylin (KCNTATCATQRLANFLVHSSNNFGPVLPPTNVGSNTY)”, for which the “solubility and stability characteristics compared to human amylin” value in data set [1] was “more desirable solubility and stability characteristics”.

With “^18Arg^25,28Pro-h-amylin (KCNTATCATQRLANFLVRSSNNFGPILPSTNVGSNTY)”, the “solubility and stability characteristics compared to human amylin” value in data set [1] was “more desirable solubility and stability characteristics”. In addition, the “amylin activity in vivo” value in data set [2] is “show amylin activity in vivo”.

Regarding “des-^1Lys-h-amylin (CNTATCATQRLANFLVHSSNNFGAILSSTNVGSNTY)”, the “amylin activity in vivo” value in data set [2] was “show amylin activity in vivo”.

Consider `CC(C)CC(N(C)C)C1(c2ccc(Cl)cc2)CCC1` (stereo not drawn) [sibutramine], for which, in data set [3], the “change in body weight (vehicle-corrected)” value was “approximately 5%”, the fat mass result is “Fat mass loss was also evident” and the “lean (protein) mass” value is reported as “relatively unchanged”.

In the case of Rat amylin, the “average sucrose to chow consumption ratio (as % of baseline)” value in data set [4] (rat amylin 300 μg/kg/d by osmotic pump, restraint-stressed rats, 4 days of sucrose re-introduction) is recorded as “prevents the increase in the average sucrose to chow consumption ratio”. The sucrose intake entry in data set [4] (rat amylin 300 μg/kg/d, stressed and non-stressed rats, vs vehicle treated controls) is “decreases sucrose intake in both stressed and non-stressed conditions”. The “stress-induced decrease in chow intake and total kcals” value in data set [4] (rat amylin 300 μg/kg/d, treatment group vs control group) is reported as “less pronounced in the treatment group”. In data set [5] (setting [7]), the “24 h energy expenditure, dark phase increase” value was determined as 6.6% and the “24 h energy expenditure, light phase increase” value is 9.7%. Further, the “fat mass, change in percent of total mass” value in data set [5] (pre- vs post-treatment, MRI, vehicle 3.7±0.9) is reported as −3.6±1.0%. In addition, the “lean tissue, change in percent of total mass” value in data set [5] (pre- vs post-treatment, MRI, vehicle −0.53±0.21, not significant) is recorded as 0.08±0.23%. Also, the “percent total calories from low fat chow (main effect)” value in data set [5] (rat amylin 300 μg/kg/d, 11 weeks, vehicle 4.3±0.6) is recorded as 12.2±3.2%. In data set [5] (rat amylin 300 μg/kg/d, 11 weeks, vehicle 126±10), this compound registered a body weight gain of 50 ± 11 g. In addition, the “calories from low fat chow (main effect)” value in data set [5] (rat amylin 300 μg/kg/d, 11 weeks, vehicle 271±42) is 633 ± 145 kcal. Further, in data set [5] (rat amylin 300 μg/kg/d, 11 weeks, vehicle 6315±111, mean±SEM), the “calories from high fat chow over 11 weeks (FIG. 2)” value turned out to be 5309 ± 202 kcal. In data set [3], the “change in body weight (vehicle-corrected)” value is “approximately 5%”, the fat mass entry is “Fat mass loss was also evident” and the “lean (protein) mass” value is listed as “increased”. Also, in data set [6] (setting [8]), the “percent of body fat” value was “lower percent of body fat” and the “percent of lean body mass” value was “higher percent of lean body mass”. Besides, in data set [6] (setting [9]), the body weight result is reported as “significantly decreased” and the cumulative food intake entry is given as “significantly decreased”.

Consider “^28Pro-h-amylin (KCNTATCATQRLANFLVHSSNNFGAILPSTNVGSNTY)”, for which, in data set [2], the “amylin activity in vivo” value was “show amylin activity in vivo”.

Consider “des-^1Lys^18Arg^25,28Pro-h-amylin (CNTATCATQRLANFLVRSSNNFGPILPSTNVGSNTY)”, for which the “amylin activity in vivo” value in data set [2] is listed as “show amylin activity in vivo”.
